Legend:
[1] = tested on: mouse eggs; assay: Time-lapse imaging of zinc sparks and calcium transients in parthenogenetically activated eggs; type: cell-based
Description: Time-lapse imaging of parthenogenetically activated eggs. Eggs were first incubated in 10 μM Calcium Green-1 AM (Invitrogen) and 0.04% (w/v) Pluronic F-127 (Invitrogen) for either 30 min (mouse) or 60 min (non-human primate) at 37° C. Mouse eggs were washed in calcium-free KSOM (Millipore) and transferred to a 50 μl drop containing 10 mM SrCl2 (Sigma-Aldrich) and 50 μM FluoZin-3 (Invitrogen) on a glass-bottom dish (Bioptechs Inc.). Non-human primate eggs were transferred to one end of a long and shallow drop (20 μl) of calcium-free KSOM (Millipore) containing 50 μM FluoZin-3 (Invitrogen) on a glass-bottom dish (Bioptechs Inc.), covered with oil for embryo culture (Irvine Scientific, Santa Ana, Calif.). Ionomycin was perfused in at the opposite end to a final concentration of 20 μM. In both cases, image acquisition began immediately and occurred every 4 s for a total of 1-3 hours (mouse) or 15 min (non-human primate), unless noted otherwise. All images were acquired on a TCS SP5 confocal microscope (Leica Microsystems) equipped with a stage top incubator (Tokai Hit), 20× objective, and an Ar (488 nm) laser line.
Additional experiments were consistent with this determination. […] Second, zinc sparks were absent in eggs treated with the membrane permeable acetoxymethyl ester (AM) derivative of 1,2-bis(o-aminophenoxy)ethane-N,N,N′,N′-tetraacetic acid (BAPTA).
The polarization of the zinc-enriched vesicles mirrors that of the cortical granules (CG), which are exocytic vesicles that participate in the cortical reaction, which involves the hardening of the zona pellucida to establish a block to polyspermy at fertilization (Ducibella. (1996) Hum Reprod Update 2, 29-42.; herein incorporated by reference in its entirety). […] In most cases, subsequent sparks were inhibited (SEE FIG. 9). Experiments conducted during development of embodiments of the present invention indicate that zinc-containing vesicles are pre-fused with the egg membrane, allowing the first spark to occur even in the presence of CytoB. This type of phenomenon has been described for cortical granules in the sea urchin egg, where one subset of CGs are in a hemifused state prior to activation21.

[2] = Gee et al. 2002; cited from earlier work
[3] = tested on: mouse eggs; assay: TPEN treatment and spindle imaging of mouse eggs; type: cell-based; conditions: 10 μM, 8 hrs of culture
Description: FIGS. 12a-e show perturbation of intracellular zinc availability causes activation of the egg. Following 8 hours of culture, control eggs maintain a metaphase II spindle (a, sp) with individual chromosomes aligned at the metaphase plate (b). In contrast, eggs exposed to 10 μM TPEN for the same period artificially activate as indicated by the formation of an intact pronucleus (c, pn) with decondensed chromatin surrounding a nucleolus (d).
TPEN treatment and spindle imaging of mouse eggs. Superovulated eggs were collected and transferred to KSOM medium (Millipore) with or without 10 μM TPEN and cultured up to 8 hrs at 37° C. in an atmosphere of 5% CO2 in air. […] Eggs were fixed and permeabilized for 30 min at 37° C. in a solution containing 2% formaldehyde, 2% Triton X-100, 100 mM PIPES, 5 mM MgCl2, and 2.4 mM EGTA. Eggs were then washed and blocked for 1-3 hrs in 1× PBS containing 0.1 M glycine, 3 mg/mL BSA, 0.01% Tween-20, and 0.01% sodium azide followed by incubation with […] (1:100, Sigma) in blocking buffer for 1 hr at 37° C. Eggs were washed again in blocking buffer, incubated in Alexa Fluor 488-conjugated goat anti-mouse IgG (Invitrogen) and rhodamine-phalloidin conjugate (Invitrogen) at 37° C. for 1 hr, washed three additional times, and mounted on microscopy slides with coverslips in Vectashield with DAPI. […]

[4] = pM reflects the log of the free ion concentration; cited from earlier work
[5] = tested on: activated mouse eggs; conditions: 10 μM, 10 min at 1.5 hpa
[6] = treated prior to strontium chloride activation

CC(=O)OCOC(=O)CN(CC(=O)OCOC(C)=O)c1ccccc1OCCOc1ccccc1N(CC(=O)OCOC(C)=O)CC(=O)OCOC(C)=O [BAPTA AM]
parthenogenetic activation on long-term exposure ([1]; 10 μM): did not parthenogenetically activate eggs | calcium transients and zinc sparks ([1]; extended culture in strontium chloride): both calcium transients and zinc sparks were absent | second polar body extrusion and pronucleus formation ([1]; strontium chloride activation): did not extrude a second polar body or form a pronucleus

C=C1[C@@H](C)[C@H]2[C@H](Cc3ccccc3)NC(=O)[C@]23OC(=O)/C=C/[C@H](O)CCC[C@@H](C)C/C=C/[C@H]3[C@@H]1O [CytoB, cytochalasin B]
calcium oscillations upon activation [1, 6]: normal calcium oscillations | zinc sparks upon activation [1, 6]: only exhibit a single zinc spark

COc1ccc(N(CC(=O)O)CC(=O)O)c(OCCOc2cc(-c3c4cc(F)c(=O)cc-4oc4cc(O)c(F)cc34)ccc2NCC(=O)O)c1 [FluoZin-3]
fluorescence turn-on for Zn [2]: 80 fold

c1ccc(CN(CCN(Cc2ccccn2)Cc2ccccn2)Cc2ccccn2)nc1 [TPEN]
egg activation (pronucleus-like structure) [3]: had a pronucleus-like structure at significantly higher rates | zinc sparks in zinc-insufficient eggs ([1]; oocytes treated during in vitro maturation, then activated): did not undergo zinc sparks

CCOC(=O)COc1cc(NS(=O)(=O)c2ccc(C)cc2)c2nc(C)ccc2c1 [zinquin ethyl ester]
pM value [4]: 9.3

carbonic anhydrase
pM value [4]: 12.4

zinc pyrithione [ZnPT]
eggs lacking a pronucleus with aligned chromosomes [5]: eighty-four | eggs that formed a pronucleus ([5]; scored 6-8 hpa): seventeen
